How the values were obtained:
[1] = test system: rice (Oryza sativa) plastidal ACCase; assay: Clethodim tolerance of rice ACCase mutations, yeast complementation assay (Examples 1-3); type: cell-based; conditions: for clethodim tolerance: ACCase mutation tested with the herbicide clethodim; for clethodim tolerance of combined mutations compared with single mutation(s) or parent mutant: double/triple mutants vs single mutations
From the text: Joachimiak M. et al Proc Natl Acad Sci U.S.A. 1997 Sep. 2; 94 (18): 9990-5 and WO/2013/074524 and WO/2013/074524 each describe methods to complement a yeast (Saccharomyces cerevisiae) strain lacking the native acc1 gene with either a wt or mutated form of a chimeric plastidal ACCase gene from a plant such as rice (Oryza sativa). Methods to introduce one or more mutations listed herein into the chimeric ACCase gene and subsequently complement the acc1 lacking yeast strain are well known by an individual skilled in the art. In the art assays are known for measuring tolerance of a mutated plant ACCase gene versus a herbicide that is a member of the aryloxyphenoxypropanoate, cyclohexanedione, and/or phenylpyrazoline families of herbicides such as clethodim, sethoxydim, fluazifop, haloxyfop, quizalofop, and pinoxaden (Joachimiak M. et al Proc Natl Acad Sci U.S.A. 1997 Sep. 2; 94 (18): 9990-5 and WO/2013/074524).
A library of random mutations in the rice (Oryza sativa) plastidal ACCase gene was generated and screened for clethodim tolerant clones using a yeast complementation assay.

O. sativa ACCase = assay: Growth of Saccharomyces cerevisiae pseudodiploid acc1Δ strains carrying wild-type or mutant OsACCase plasmids, streaked onto plates with increasing concentrations of clethodim (Examples 5, 7, 10; Tables 8, 12); type: cell-based, Oryza sativa; parameters: key to growth, 0 mM clethodim / growth, 0.025 mM clethodim / growth, 0.1 mM clethodim / growth, 0.25 mM clethodim / growth, 0.5 mM clethodim / growth, 1 mM clethodim: ++ = Strong growth; + = Poor growth; − = No growth; key to relative growth phenotype, 0.5 mM clethodim / relative growth phenotype, 1 mM clethodim / relative growth phenotype, 2 mM clethodim / relative growth phenotype, highGal / relative growth phenotype, lowGal / relative growth phenotype, 0.05 mM clethodim / relative growth phenotype, 0.1 mM clethodim / relative growth phenotype, 0.25 mM clethodim: +++ high growth; ++ moderate growth; + low to negligible growth; (−) some cell debris, no growth; − no growth or cell debris; conditions: for clethodim tolerance compared to the wild-type (wt) control strain: Example 5; for growth, 0 mM clethodim / growth, 0.025 mM clethodim / growth, 0.1 mM clethodim / growth, 0.25 mM clethodim / growth, 0.5 mM clethodim / growth, 1 mM clethodim: Table 12; for growth, 0 mM clethodim: plate with 0 mM clethodim; for growth, 0 mM clethodim / growth, 0.025 mM clethodim / growth, 0.1 mM clethodim / growth, 0.25 mM clethodim / growth, 0.5 mM clethodim / growth, 1 mM clethodim / relative growth phenotype, 0.05 mM clethodim / relative growth phenotype, 0.1 mM clethodim / relative growth phenotype, 0.25 mM clethodim / relative growth phenotype, 0.5 mM clethodim / relative growth phenotype, 1 mM clethodim / relative growth phenotype, 2 mM clethodim: galactose 0.01%; for growth, 0.025 mM clethodim: plate with 0.025 mM clethodim; for growth, 0.1 mM clethodim / relative growth phenotype, 0.1 mM clethodim: plate with 0.1 mM clethodim; for growth, 0.25 mM clethodim / relative growth phenotype, 0.25 mM clethodim: plate with 0.25 mM clethodim; for growth, 0.5 mM clethodim / relative growth phenotype, 0.5 mM clethodim: plate with 0.5 mM clethodim; for growth, 1 mM clethodim / relative growth phenotype, 1 mM clethodim: plate with 1 mM clethodim; for relative growth phenotype, 0.05 mM clethodim: plate with 0.05 mM clethodim; for relative growth phenotype, 2 mM clethodim: plate with 2 mM clethodim; for relative growth phenotype, highGal / relative growth phenotype, lowGal: yeast acc1Δ strain with OsACCase plasmid, no clethodim; for relative growth phenotype, highGal: high galactose plate; for relative growth phenotype, lowGal: low galactose plate
From the text: Mutations at position N2097S and V2098A were combined to determine if point mutations at both positions gave increased resistance compared to either single point mutation. Each of these respective mutations (N2097S, V2098A and N2097S/V2098A) were generated by standard methods and introduced into a Saccharomyces cerevisiae pseudodiploid acc1Δ strain with a plasmid containing wild-type O. sativa ACCase gene. Once each of these mutations were introduced by recombination mediated mutagenesis, the OsACCase wild-type plasmid was removed, and mutation strains were confirmed by sequencing. The three strains, along with a series of controls including a WT strain (negative control), an I1781L mutant strain, and a D2078G mutant strain (positive control), were streaked onto plates with increasing concentrations of clethodim. […] These observations argue that N2097S is an enhancer of V2098A tolerance.
Edits at position S1784N and A1785G were combined to determine if point mutations at both of these two positions gave increased resistance compared to either single point mutation. Each of these respective mutations (S1784N, A1785G and S1784N/A1785G) were generated by standard methods and introduced into a Saccharomyces cerevisiae pseudodiploid acc1Δ strain with a plasmid containing wild-type O. sativa ACCase gene. Once each of these mutations were introduced by recombination mediated mutagenesis, the OsACCase wild-type plasmid was removed, and mutation strains were confirmed by sequencing. The three strains, along with a series of controls including a WT strain (negative control), an I1781L mutant strain, a D2078G mutant strain (positive control), and a V2075L mutant strain were streaked onto plates with increasing concentrations of clethodim.
Each of these respective mutations (D2078G, P2083T, D2078G/P2083T) were generated by standard methods and introduced into a Saccharomyces cerevisiae pseudodiploid acc14 strain with a plasmid containing the wild-type O. sativa ACCase gene. Once plasmids bearing each of these mutations, introduced using recombination-mediated mutagenesis, the OsACCase wild-type plasmid was removed, and strains bearing each mutant plasmid were confirmed by sequencing. The three strains, along with a series of controls including a wild-type strain (negative control), an I1781L mutant strain (medium control), and a pre-existing D2078G mutant strain (positive control) were streaked onto plates with increasing concentrations of clethodim.

rice Oryza sativa = assay: Regenerated edited rice shoots established in soil, greenhouse: plant growth, herbicide tolerance, fertility (Example 9); type: in vivo
From the text: The D2078G mutation was introduced into a native rice Oryza sativa ACCase gene utilizing PEG delivery of CRISPR-Cas and GRONs into protoplasts. Examples of target spacer sequences for sgRNA targeting the rice ACCase gene are shown, but not limited to, those listed in the below Table 9. Sequence information for exemplary GRONs is shown, but not limited to those listed in the below Table 10. Rice protoplasts were isolated from cell suspension cultures initiated from Cypress mature seed-derived embryogenic calli. A non-coding D2078G GRON with RNP (CRISPR-Cas9 protein plus gRNA complex) was introduced into rice protoplasts using PEG-mediated delivery method. Following PEG treatment, protoplasts were cultured in liquid medium and kept stationary in the dark at 26±2° C. for 2 weeks. After 2 weeks, culture plates were gently scraped to release the divided protoplasts from the bottom of the plates and added equal volume of fresh liquid medium. These cultures were transferred on a rotatory shaker and incubated in the dark at 26±2° C. […]
The results of herbicide rate tolerance field trials of the D2078G/P2083T line can be seen below in Table 11. The edited plants were sprayed with clethodim, and plant injury was visually scored at (7) seven, (14) fourteen, and (28) days after application of the herbicide (“DAA”) on a 0-100% percentage scale for chlorosis of newest leaf-tips and growing points.

[2] = plates with increasing clethodim, 0.01% galactose
[3] = Example 10, highest concentration tested 1 mM, 0.01% galactose

relative growth phenotype, 0.05 mM clethodim (O. sativa ACCase)	relative growth phenotype, 0.1 mM clethodim (O. sativa ACCase)	relative growth phenotype, 0.25 mM clethodim (O. sativa ACCase)	relative growth phenotype, 0.5 mM clethodim (O. sativa ACCase)	relative growth phenotype, 1 mM clethodim (O. sativa ACCase)	relative growth phenotype, 2 mM clethodim (O. sativa ACCase)	relative growth phenotype, highGal (O. sativa ACCase)	relative growth phenotype, lowGal (O. sativa ACCase)	Substance	clethodim tolerance [1]	clethodim tolerance compared to the wild-type (wt) control strain (O. sativa ACCase; [2])	other results
								V2098A: mutated ACCase, numbering per SEQ ID NO: 2	measurable clethodim tolerance	did produce tolerance	
+++	+++	+++	+++	+	(−)	+++	+++	D2078G: mutated ACCase, numbering per SEQ ID NO: 2; positive control strain; also edited rice shoots	measurable clethodim tolerance	did produce tolerance	clethodim concentrations on which the strain grew (O. sativa ACCase; Example 7, plates with increasing clethodim, 0.01% galactose): up to 1.0 mM; growth, 0 mM clethodim (O. sativa ACCase): ++; growth, 0.025 mM clethodim (O. sativa ACCase): ++; growth, 0.1 mM clethodim (O. sativa ACCase): ++; growth, 0.25 mM clethodim (O. sativa ACCase): ++; growth, 0.5 mM clethodim (O. sativa ACCase): ++; growth, 1 mM clethodim (O. sativa ACCase): +; herbicide tolerance (rice Oryza sativa): strong herbicide tolerance
+++	+++	+	(−)	(−)	(−)	+++	+++	S1784N: mutated ACCase, numbering per SEQ ID NO: 2	measurable clethodim tolerance		
(−)	(−)	−	−	−	−	+++	+++	A1785G: mutated ACCase, numbering per SEQ ID NO: 2	no detectable clethodim tolerance		
								R1672I: mutated ACCase, numbering per SEQ ID NO: 2	neither R1672I nor M1974T alone provide measurable tolerance		effect on clethodim tolerance of the single D2078G mutation ([1]; mutation added to D2078G): increase tolerance of the single D2078G mutation
								R1672I-D2078G: double mutant ACCase			clethodim tolerance of combined mutations compared with single mutation(s) or parent mutant [1]: tolerance that is similar to the corresponding original triple mutants
+++	+++	+++	+++	+	(−)	+++	+++	V2075L: mutated ACCase, numbering per SEQ ID NO: 2	measurable clethodim tolerance		growth on clethodim plates (in words) (O. sativa ACCase; [2]): grew to a similar extent as the V2075L mutation
								N2097S: mutated ACCase, numbering per SEQ ID NO: 2	neither the N2097S nor the N2097D single mutations provide detectable clethodim tolerance	does not produce detectable clethodim tolerance	effect on clethodim tolerance when combined with D2078G, V2075L or V2098A ([1]; combined with either D2078G, V2075L or V2098A): further increases clethodim tolerance
								R1672I/M1975T/D2078G: triple mutant ACCase clone			clethodim tolerance of combined mutations compared with single mutation(s) or parent mutant [1]: increased clethodim tolerance compared to the single D2078G mutation
+++	+++	++	(−)	(−)	(−)	+++	+++	I1781L: mutated ACCase, numbering per SEQ ID NO: 2; moderate-resistance control	produces tolerance	did produce tolerance	clethodim concentrations on which the strain grew poorly (O. sativa ACCase; [3]): up to 0.25 mM; clethodim concentrations on which the strain grew well (O. sativa ACCase; [3]): up to 0.1 mM; growth, 0 mM clethodim (O. sativa ACCase): ++; growth, 0.025 mM clethodim (O. sativa ACCase): ++; growth, 0.1 mM clethodim (O. sativa ACCase): ++; growth, 0.25 mM clethodim (O. sativa ACCase): +; growth, 0.5 mM clethodim (O. sativa ACCase): −; growth, 1 mM clethodim (O. sativa ACCase): −; growth on clethodim plates (in words) (O. sativa ACCase; [2]): consistent with moderate resistance
								L1818H: mutated ACCase, numbering per SEQ ID NO: 2	measurable clethodim tolerance		

Source: patent US20260242768A1, “ACETYL-COENZYME A CARBOXYLASE MUTANTS” (CIBUS US LLC, priority 2023, published 2026)
